# Test results: ChEMBL document CHEMBL4610120, “New Broad-Spectrum Antibiotics Containing a Pyrrolobenzodiazepine Ring with Activity against Multidrug-Resistant Gram-Negative Bacteria” (J Med Chem, 2020)
# Legend:
# [1] = tested on: Klebsiella pneumoniae; assay: Antimicrobial activity against multidrug-resistant Klebsiella pneumoniae NCTC 13368 by microdilution broth method; assay type: functional
# [2] = Selectivity ratio of cytotoxicity against human WI38 cells to MIC for Acinetobacter baumannii ATCC 17978; assay type: toxicity, cell-based
# [3] = tested on: DNA; assay: Stabilization of 5'-FAM-TAT-ATA-TAG-ATA-TTT-TTT-TAT-CTA-TAT-ATA-3'-TAMRA DNA (unknown origin) assessed as reduction in change in melting temperature at 1:1 to 5:1 ligand to DNA ratio measured after 3 hrs by FRET-based assay relative to control; assay type: ADME, nucleic-acid assay
# [4] = tested on: DNA; assay: Stabilization of 5'-FAM-TAT-AGA-TAT-AGA-TAT-TTT-ATA-TCT-ATA-TCT-ATA-3'-TAMRA DNA (unknown origin) assessed as reduction in change in melting temperature at 1:1 to 5:1 ligand to DNA ratio measured after 3 hrs by FRET-based assay relative to control; assay type: ADME, nucleic-acid assay
# [5] = Selectivity ratio of cytotoxicity against human WI38 cells to MIC for vancomycin sensitive Enterococcus faecalis NCTC 775; assay type: toxicity, cell-based
# [6] = Selectivity ratio of cytotoxicity against human WI38 cells to MIC for multidrug-resistant Klebsiella pneumoniae NCTC 13368; assay type: toxicity, cell-based
# [7] = Selectivity ratio of cytotoxicity against human WI38 cells to MIC for multidrug-resistant Acinetobacter baumannii AYE; assay type: toxicity, cell-based
# [8] = tested on: Acinetobacter baumannii; assay: Antimicrobial activity against multidrug-resistant Acinetobacter baumannii AYE by microdilution broth method; assay type: functional
# [9] = tested on: Pseudomonas aeruginosa; assay: Antimicrobial activity against Pseudomonas aeruginosa PAO1 by microdilution broth method; assay type: functional
# [10] = Cytotoxicity against human WI38 cells assessed as cell viability at 20 uM measured after 24 hrs by MTT assay relative to control; assay type: cell-based, WI-38; settings: read-out: Activity
# [11] = tested on: Klebsiella pneumoniae; assay: Antimicrobial activity against Klebsiella pneumoniae M6 by microdilution broth method; assay type: functional
# [12] = tested on: Staphylococcus aureus; assay: Antibacterial activity against methicillin resistant Staphylococcus aureus NCTC 13616 by microdilution broth method; assay type: functional
# [13] = Selectivity ratio of cytotoxicity against human WI38 cells to MIC for multidrug-resistant Pseudomonas aeruginosa NCTC 13437; assay type: toxicity, cell-based
# [14] = tested on: Pseudomonas aeruginosa; assay: Antimicrobial activity against multidrug-resistant Pseudomonas aeruginosa NCTC 13437 by microdilution broth method; assay type: functional
# [15] = tested on: Acinetobacter baumannii; assay: Antimicrobial activity against Acinetobacter baumannii ATCC 17978 by microdilution broth method; assay type: functional
# [16] = Selectivity ratio of cytotoxicity against human WI38 cells to MIC for vancomycin resistant Enterococcus faecalis NCTC 12201; assay type: toxicity, cell-based
# [17] = Selectivity ratio of cytotoxicity against human WI38 cells to MIC for methicillin resistant Staphylococcus aureus NCTC 13616; assay type: toxicity, cell-based
# [18] = Selectivity ratio of cytotoxicity against human WI38 cells to MIC for methicillin resistant Staphylococcus aureus NCTC 13277; assay type: toxicity, cell-based
# [19] = Selectivity ratio of cytotoxicity against human WI38 cells to MIC for Klebsiella pneumoniae M6; assay type: toxicity, cell-based
# [20] = Selectivity ratio of cytotoxicity against human WI38 cells to MIC for methicillin sensitive Staphylococcus aureus NCTC 6571; assay type: toxicity, cell-based
# [21] = tested on: Staphylococcus aureus; assay: Antibacterial activity against methicillin resistant Staphylococcus aureus NCTC 13277 by microdilution broth method; assay type: functional
# [22] = tested on: Staphylococcus aureus; assay: Antibacterial activity against methicillin sensitive Staphylococcus aureus NCTC 6571 by microdilution broth method; assay type: functional
# [23] = tested on: Enterococcus faecium; assay: Antibacterial activity against vancomycin resistant Enterococcus faecium NCTC 12204 by microdilution broth method; assay type: functional
# [24] = tested on: Enterococcus faecalis; assay: Antibacterial activity against vancomycin sensitive Enterococcus faecalis NCTC 775 by microdilution broth method; assay type: functional
# [25] = Selectivity ratio of cytotoxicity against human WI38 cells to MIC for vancomycin resistant Enterococcus faecium NCTC 12204; assay type: toxicity, cell-based
# [26] = Selectivity ratio of cytotoxicity against human WI38 cells to MIC for Pseudomonas aeruginosa PAO1; assay type: toxicity, cell-based
# [27] = tested on: Enterococcus faecalis; assay: Antibacterial activity against vancomycin resistant Enterococcus faecalis NCTC 12201 by microdilution broth method; assay type: functional
SMILES,MIC [1] [µg/mL],selectivity ratio [2],fold change (FC) [3],fold change (FC) [4],selectivity ratio [5],selectivity ratio [6],selectivity ratio [7],MIC [8] [µg/mL],MIC [9] [µg/mL],"viability at 24 h, 20 µM [10] [%]",MIC [11] [µg/mL],MIC [12] [µg/mL],selectivity ratio [13],MIC [14] [µg/mL],MIC [15] [µg/mL],MIC [21] [µg/mL],MIC [22] [µg/mL],MIC [23] [µg/mL],MIC [24] [µg/mL],MIC [27] [µg/mL],further results
CCN(CC)C(=O)c1cc2cc(NC(=O)c3cc(NC(=O)CCCOc4cc5c(cc4OC)C(=O)N4CCC[C@H]4C=N5)cn3C)ccc2o1,64,10,3 to 4,3 to 4,100,10,10,4,128,> 85,8,0.25,10,32,4,0.5,≤ 0.125,≤ 0.125,0.25,≤ 0.125,selectivity ratio [16]: 100; selectivity ratio [17]: 100; selectivity ratio [18]: 100; selectivity ratio [19]: 10; selectivity ratio [20]: 100; selectivity ratio [25]: 100; selectivity ratio [26]: 10
COc1cc2c(cc1OCCCC(=O)Nc1cc(C(=O)Nc3ccc(-c4cc(C(=O)N5CCCCC5)n(C)c4)cc3)n(C)c1)N=C[C@@H]1CCCN1C2=O,> 128,10,3 to 4,3 to 4,100,10,10,2,> 128,> 85,16,0.06,10,> 128,2,0.125,≤ 0.03,≤ 0.03,0.125,≤ 0.03,selectivity ratio [16]: 100; selectivity ratio [17]: 100; selectivity ratio [18]: 100; selectivity ratio [19]: 10; selectivity ratio [20]: 100; selectivity ratio [25]: 100; selectivity ratio [26]: 10
COc1cc2c(cc1OCCCC(=O)Nc1cc(C(=O)Nc3ccc(-c4cc(C(=O)N5CCOCC5)n(C)c4)cc3)n(C)c1)N=C[C@@H]1CCCN1C2=O,32,10,3 to 4,3 to 4,100,10,10,2,> 128,> 85,2,≤ 0.125,10,> 128,4,≤ 0.125,≤ 0.125,≤ 0.125,≤ 0.125,≤ 0.125,selectivity ratio [16]: 100; selectivity ratio [17]: 100; selectivity ratio [18]: 100; selectivity ratio [19]: 10; selectivity ratio [20]: 100; selectivity ratio [25]: 100; selectivity ratio [26]: 10
COC(=O)c1cc(NC(=O)c2cc(NC(=O)CCCOc3cc4c(cc3OC)C(=O)N3CCC[C@H]3C=N4)cn2C)cn1C,> 128,–,3 to 4,3 to 4,–,–,–,128,128,35,> 128,1,–,> 128,128,2,0.5,0.5,1,0.5,–
